{"source": "patent US20220193060A1", "about": "“Inhibition of IL-1 Induced Inflammation” (THIOLAB, LLC., priority 2019, published 2022)", "system": "wasp sting", "experiment": "Case: topical CPDS cream for wasp sting", "type": "in vivo, human", "settings": "topical cream containing 2% CPDS by weight", "description": "An individual was stung by a wasp on their hand. […] Application of CPDS cream was repeated after two hours and every 4 hours thereafter. The swelling and redness vanished after 24 hours.", "data": [{"smiles": "O=C(O)c1ccc(SSc2ccc(C(=O)O)cn2)nc1", "note": "[CPDS, 6,6′-dithiodinicotinic acid]", "values": [{"measurement": "burning and itching", "setting": "person", "result": "immediate relief"}, {"measurement": "time until swelling and redness vanished", "result": 24, "unit": "h"}]}]}
